Measurements published in article PMC6130578, “Isolation and identification of three new chromones from the leaves of Pimenta dioica with cytotoxic, oestrogenic and anti-oestrogenic effects” (Pharmaceutical Biology, 2018).

Experiments:
[1] = target: T1, full-length ERβ (Homo sapiens, UniProt Q92731); assay: Competitive radioligand oestrogen receptor binding assay (3H-estradiol); settings: 0.5 nM 3H-estradiol; tested at 20–100 μg/mL
T1 construct: host or cells: Sf9 insect cells
Protocol: A competitive radioligand-binding assay using full-length ERβ was used in the bioassay-guided fractionation of the crude methanol extract. The assay was performed as previously described (Obourn et al. [1993]; Doyle et al. [2009]). Briefly, recombinant human oestrogen receptor from insect Sf9 cells (α or β) was incubated with the test sample (50 μg/mL) plus 0.5 nM 3H-estradiol at 4 °C overnight. At the completion of incubation, 100 μL of a 50% hydroxylapatite slurry (in […] Tris, pH 7.4, 1 mM EDTA, 1 mM EGTA) was added and allowed to bind the ER-ligand complex for 40 min. The hydroxylapatite was washed three times with 0.5 mL of 40 mM Tris, pH 7.4, 1 mM EDTA, 1 mM EGTA and 11 mM KCl. The hydroxylapatite pellets were suspended in 1 mL of ethanol and counted in 5 mL of scintillation fluid, and the receptor-bound 3H-estradiol was measured. […] The median inhibitory concentration of 1 was determined by testing at concentrations of 20–100 μg/mL. All tests were performed in triplicate, and the results were determined from three independent experiments.

[2] = system: oestrogen responsive SEAP reporter gene (ERE) in MCF-7 cells; assay: Oestrogen-responsive SEAP reporter gene assay in transfected MCF-7 cells; assay type: cell-based, human; settings: for SEAP activity in combination with E2: 1 μM compound + 10 nM E2; for fold increase in SEAP expression / SEAP reporter gene expression/activity, compound alone: 1 μM; for fold increase in SEAP expression: compound alone; for SEAP reporter gene expression/activity, compound alone: vs. control
Protocol: In addition to the ERβ binding assay, oestrogenic activity was determined by an oestrogen-responsive reporter gene assay consisting of MCF-7 cells transfected with a construct containing a secreted alkaline phosphatase (SEAP) gene that is induced through an oestrogen response element (ERE). MCF-7 (HTB-22) human breast cancer cells (obtained from American Type Culture Collection, Manassas, VA) were maintained in Dulbecco’s modified Eagle’s medium containing 10% FBS and 100 U/mL penicillin and 100 μg/mL streptomycin in 75 cm^2 flasks. Forty-eight hours prior to transfection, the cells were maintained in phenol red free DMEM medium supplemented with 0.5% FCS, in a humidified atmosphere with 5% CO2 at 37 °C. For transfection, 0.5 × 10^5 cells were seeded per well of a 96-well plate in OPTI-MEM supplemented with dextran-charcoal stripped FBS. After 4 h, serum concentration was reduced to 1%. Prior to transfection, cells were washed with DMEM and incubated in phenol red-free OPTI-MEM without FBS as described by Nozawa et al. ([2005]).
The cells were transfected with the reporter vector pERE-TA-SEAP, coding for the SEAP gene (Clontech, Palo Alto, CA) (Cullen and Malim [1992]; Treeck et al. [2003]). MCF-7 cells were transfected using 0.5 μL Lipofectamine 2000 (Invitrogen, Carlsbad, CA), and 0.1 μg plasmid DNA including the SEAP vector per well of a 96-well plate according to the manufacturer’s instructions. As a negative control, cells were transfected with reporter vector pTA-SEAP2 using Lipofectamine 2000. After 12 h of transfection, the media were replaced with phenol-free Dulbecco’s modified Eagle’s medium containing 10% dextran-coated charcoal stripped FBS. Cells were treated with 1 μM 1–3 with and without 10 nM E2 or 1 μM ICI 182,780. Estradiol was used as the positive control and DMSO as the negative control. Cells were treated for 12 h, then the medium was harvested, centrifuged and 25 μL from each well was transferred to a new 96 well plate. The SEAP activity was measured using the Great EscAPe SEAP Chemiluminescence High-Throughput Detection Kit (Clontech, Palo Alto, CA) using a 96-well luminometer according to the manufacturer’s instructions. To assess novel mechanisms of action other than ER, we tested the extract and fractions in a HER2/neu tyrosine kinase assays (Barbacci et al. [2003]; HTScan HER2/ErbB2 kinase Assay Kit, Cell Signaling Tech., 96-well plates, high throughput), using the methods as described by the manufacturer.

[3] = system: MCF-7 cells; assay: Cell viability assay (CellTiter-Glo 2.0), MCF-7; assay type: cell-based; settings: Homo sapiens, MCF7; MCF-7, 72 h; read-out: IC50 (cell growth)
Protocol: (§1) MCF-7 and AGS cells were seeded at 2.5 × 10^4 cells in 100 µL/well while NCI-N87 was seeded at 5.0 × 10^4 cells in 100 µL/well in opaque-walled 96-well plate. Control wells containing medium (supplemented with 10% FBS and 1% penicillin/streptomycin) without cells to determine background luminescence were also prepared. The cells were left to attach overnight in the plate. Culture medium was aspirated and fresh medium added to the wells before reconstituted extracts of P. dioica (methanol extract, 50% methanol fraction) and isolated compounds (1–3, and quercitrin) at 100, 50, 20, 10 and 5 µg/mL were added to experimental wells. Drug controls (5-fluorouracil and doxorubicin) and vehicle control (0.02% DMSO) wells were also prepared simultaneously, and the plate was incubated in a humidified incubator at 37 °C in an atmosphere of 5% CO2 for 72 h. At the end of the incubation period, the plate and its contents were equilibrated to room temperature for approximately 30 min. A 100 µL volume of CellTiter-Glo 2.0 Reagent (Promega Corporation, Madison, WI) was added to each well. The contents were mixed for 2 min on an orbital shaker to induce cell lysis and the plate was incubated at room temperature for 10 min to stabilize the luminescent signal. Luminescence signal was read using the Synergy HT Plate reader (Biotek, Winooski, VT) and Gen5 1.11 software. The IC50 defined as the concentration that causes 50% inhibition of cell growth after exposure to extract for 72 h was calculated using log (inhibitor) vs. normalized response analysis with GraphPad Prism 7 (GraphPad Software, Inc., La Jolla, CA).

[4] = system: AGS cells; assay: Cell viability assay (CellTiter-Glo 2.0), AGS; assay type: cell-based; settings: Homo sapiens, 72 h, read-out: IC50 (cell growth)
Protocol: as §1

[5] = system: NCI-N87 cells; assay: Cell viability assay (CellTiter-Glo 2.0), NCI-N87; assay type: cell-based; settings: Homo sapiens, NCI-N87, 72 h; read-out: IC50 (cell growth)
Protocol: as §1

[6] = system: caspase 8 in MCF-7 cells; assay: Caspase-Glo 8 apoptosis assay in MCF-7 cells; assay type: cell-based, human; settings: compound 2 at IC50 concentration (55 µg/mL), 2 h
Protocol: MCF-7 cells were seeded in triplicate at a density of 3.0 × 10^4 cells in 100 µL/well in opaque-walled 96-well plates. The cells were left to attach overnight in the plate. Compound 2 at 55 µg/mL was added to the test wells. Caspase-Glo® 8 Reagents (Promega Corporation, Madison, WI) were prepared according to manufacturer’s instruction and allowed to equilibrate to room temperature. The test plates containing treated cells as well as controls were removed from the incubator after 2 h of incubation and allowed to equilibrate to room temperature. A 100 μL volume of Caspase-Glo® 8 Reagent was added to each well of a 96-well plate containing 100 μL of cell culture medium (blank), non-treated cells (negative control) in culture medium, and treated cells in culture medium. The contents of wells were gently mixed using a plate shaker at 300–500 rpm for 30 s and incubated at room temperature for 1 h. The luminescence of each sample was read using the Synergy HT Plate reader (Biotek, Winooski, VT) and Gen5 1.11 software.

[7] = system: MCF-7 cells; assay: ApoTox-Glo triplex assay (viability, cytotoxicity, caspase 3/7) in MCF-7 cells; assay type: cell-based, human; settings: MCF-7, 55 µg/mL
Protocol: Ninety-six (96) well assay plates containing MCF-7 cells in medium at a density of 1.0 × 10^4 cells in 100 µL/well in triplicate were set up. […] Plates were incubated appropriately before addition of 20 μL of viability/cytotoxicity reagent containing both GF-AFC substrate and bis-AAF-R110 substrate to all wells and briefly mixed by orbital shaking (300–500 rpm for ∼30 s). Plates were incubated for 30 min at 37 °C and fluorescence was measured at 400ex/505em (viability) and 485ex/520em (cytotoxicity). A 100 μL volume of Caspase-Glo® 3/7 reagent was added to all wells, briefly mixed by orbital shaking (300–500 rpm for ∼30 s), and incubated for 30 min at room temperature. Luminescence was measured using the Synergy HT Plate reader (Biotek, Winooski, VT) and Gen 5 1.11 software to detect caspase activation.

[8] = system: Bcl-2 and Bax mRNA in MCF-7 cells; assay: qPCR for apoptotic gene expression in MCF-7 cells; assay type: cell-based, human; settings: MCF-7, at the IC50, 24 h
Protocol: MCF-7 cells were seeded at a density of 1 × 10^6 cells per well in a six-well plate and incubated overnight for cell attachment. […] Vehicle-treated control cells served as the negative control. The concentration and quality of RNA were determined by measuring absorbance at 260 nm and 280 nm on SynergyHT Take 3 session (Biotek, Winooski, VT) and Gen5 1.11 software.
Total RNA was reverse transcribed and amplified using Power SYBR Green RNA-to-CT 1-step kit (Applied Biosystems, Foster City, CA) as described by manufacturer using a Step-One Plus Real Time PCR System (Applied Biosystem, Foster City, CA). Briefly, each reaction was performed in triplicate in a 10 μL volume containing Power SYBR Green RT-PCR Mix (2×), 200 nM of each primers, RT Enzyme Mix (125×) and 100 ng RNA. The cycling conditions were as follows: 48 °C for 30 min, 95 °C for 10 min, followed by 50 cycles of 95 °C for 15 s and 60 °C for 1 min. PCR reaction specificity was confirmed by melt curve analysis at 95 °C for 15 s, 60 °C for 15 s, 95 °C for 15 s. The quantitation of gene expression was performed using β-actin as an endogenous control and relative to the calibrator (control cells) using the ΔΔCt method. Melting curves for each primer set were performed prior to the use of the primers.

T1 sequence (Q92731 whole entry): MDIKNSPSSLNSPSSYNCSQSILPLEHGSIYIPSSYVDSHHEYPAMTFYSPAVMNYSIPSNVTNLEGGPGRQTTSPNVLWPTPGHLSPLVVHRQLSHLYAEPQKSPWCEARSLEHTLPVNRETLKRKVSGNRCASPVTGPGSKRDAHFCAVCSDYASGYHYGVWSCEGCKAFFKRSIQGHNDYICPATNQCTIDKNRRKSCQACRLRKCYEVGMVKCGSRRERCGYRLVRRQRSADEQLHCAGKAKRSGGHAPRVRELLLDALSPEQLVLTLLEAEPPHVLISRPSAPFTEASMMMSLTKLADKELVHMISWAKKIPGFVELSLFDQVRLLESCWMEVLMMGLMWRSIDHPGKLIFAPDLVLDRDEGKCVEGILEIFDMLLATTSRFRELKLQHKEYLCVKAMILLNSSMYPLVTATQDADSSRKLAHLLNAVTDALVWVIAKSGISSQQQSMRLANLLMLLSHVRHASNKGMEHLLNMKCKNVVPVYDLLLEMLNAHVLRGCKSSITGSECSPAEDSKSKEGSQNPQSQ

Cc1c(O)c(C)c2oc(Oc3ccc(O)cc3)cc(=O)c2c1O [Compound 1, 2-(p-hydroxyphenoxy)-6,8-dimethyl-5,7-dihydroxychromone]
IC50 [1]: 390 µM
SEAP activity in combination with E2 [2]: did not enhance SEAP activity
SEAP expression in the presence of ICI 182,780 ([2]; 1 μM compound + 1 μM ICI 182,780): attenuated
fold increase in SEAP expression [2]: 6.2 fold
SEAP reporter gene expression/activity, compound alone [2]: significantly enhanced
IC50 [3]: > 100 µg/mL
IC50 [4]: > 100 µg/mL
IC50 [5]: > 100 µg/mL

Cc1c(O)c(C)c2oc(-c3ccc(OC4OC(CO)C(O)C(O)C4O)cc3)cc(=O)c2c1O (stereo not shown) [Compound 2, syzalterin-4′-O-glucopyranose]
fold increase in SEAP expression [2]: 6.0 fold
SEAP reporter gene expression/activity, compound alone [2]: significantly increased SEAP activity
IC50 [3]: 54.3 µg/mL
IC50 [4]: 38.1 µg/mL
IC50 [5]: 51.2 µg/mL
caspase 8 activity [6]: weakly enhanced
apoptosis in MCF-7 cells [7]: induced apoptosis
Bax mRNA expression [8]: little effects
Bax/Bcl-2 ratio [8]: ~3.5
Bcl-2 mRNA expression [8]: decreased

O=c1[nH]cc(F)c(=O)[nH]1 [Compound 5FU, 5-fluorouracil, reference compound]
IC50 [3]: 1.37 µg/mL
IC50 [4]: 18.6 µg/mL
IC50 [5]: 0.097 µg/mL

COc1cccc2c1C(=O)c1c(O)c3c(c(O)c1C2=O)C[C@@](O)(C(=O)CO)C[C@@H]3O[C@H]1C[C@H](N)[C@H](O)[C@H](C)O1 [Doxo, doxorubicin, reference compound]
IC50 [4]: 0.079 µg/mL
IC50 [5]: 0.048 µg/mL

C[C@@H]1O[C@@H](Oc2c(-c3ccc(O)c(O)c3)oc3cc(O)cc(O)c3c2=O)[C@H](O)[C@H](O)[C@H]1O [Quercitrin]
SEAP activity in combination with E2 [2]: some significant anti-oestrogenic effects
SEAP reporter gene expression/activity, compound alone [2]: neither quercitrin nor 3 alone significantly enhanced SEAP activity
IC50 [3]: > 100 µg/mL
IC50 [4]: > 100 µg/mL
IC50 [5]: > 100 µg/mL
